According to patent US4297279A, “Imidazoledicarboxylic acid derivative” (Ajinomoto Co., Inc., priority 1979, dated 1981):
Values after ≈ are worked out from the molar mass of the structure shown. Structures can show the parent of a compound that is named as a salt.

These compounds were tested on Pseudomonas aeruginosa AJ 2116 (assay: Minimum Inhibitory Concentration (MIC) against Pseudomonas aeruginosa AJ 2116 in culture). Details: not given.
Type: cell-based
Source text: Comparative Minimun Inhibitory Concentrations (MIC) (the minimum concentration of the compound in micrograms per milliliter required to inhibit the growth of the test organism in a culture) obtained using Pseudomonas aeruginosa AJ 2116 as the test organism, are presented in Table 2.

For `CC(=O)OCC1=C(C(=O)O)N2C(=O)[C@@H](NC(=O)[C@H](NC(=O)c3[nH]cnc3C(=O)O)c3ccccc3)C2SC1` (stereo partly drawn) [Example 3a, 7-β-[D(-)-α-(4-carboxyimidazole-5-carboxamido)phenylacetamido]cephalosporanic acid], the “MIC (minimum concentration of the compound required to inhibit the growth of the test organism in a culture)” value was 50 µg/mL.

Same assay, conditions: AJ2116, read-out: MIC (minimum concentration of the compound required to inhibit the growth of the test organism in a culture)

Compared with `CC1(C)S[C@@H]2[C@H](NC(=O)[C@H](N)c3ccccc3)C(=O)N2[C@H]1C(=O)O` [Ampicillin, reference compound], `CC1(C)S[C@@H]2[C@H](NC(=O)C(C(=O)O)c3ccccc3)C(=O)N2[C@H]1C(=O)O` (stereo partly drawn) [Carbenicillin, reference compound] is lower in MIC: > 500 µg/mL for the first, 100 µg/mL (≈ 264 µM) for the second.

`CC1(C)S[C@@H]2[C@H](NC(=O)[C@H](NC(=O)c3nc[nH]c3C(=O)O)c3ccccc3)C(=O)N2[C@H]1C(=O)O` [Example 3b, D-α-(4-carboxyimidazole-5-carboxamido)benzylpenicillin] and `CC1(C)S[C@@H]2[C@H](NC(=O)[C@H](NC(=O)c3nc[nH]c3C(=O)O)c3ccc(O)cc3)C(=O)N2[C@H]1C(=O)O` [Example 3c, D-α-(4-carboximidazole-5-carboxamido)-p-hydroxybenzylpenicillin monohydrate] are the same in MIC: 12.5 µg/mL (≈ 25.6 µM) for the first, 12.5 µg/mL for the second.

`CC(=O)OCC1=C(C(=O)O)N2C(=O)[C@@H](NC(=O)[C@H](NC(=O)c3nc[nH]c3C(=O)O)c3ccc(O)cc3)[C@H]2SC1` [Example 3d, 7-β-[D(-)-α-(4-carboxyimidazole-5-carboxamido)-p-hydroxyphenylacetamido]cephalosporanic acid] and `Cn1nnnc1SCC1=C(C(=O)O)N2C(=O)[C@@H](NC(=O)[C@H](NC(=O)c3nc[nH]c3C(=O)O)c3ccccc3)[C@H]2SC1` [Example 4, 7-β-[D-(-)-α-(4-carboxyimidazole-5-carboxamido)phenylacetamido]-3-[[(1-methyl-1H-tetrazol-5-yl)thio]methyl]-3-cephem-4-carboxylic acid monohydrate] are the same in MIC: 50 µg/mL (≈ 89.4 µM) for the first, 50 µg/mL for the second.

`O=C([O-])C1=C(C[n+]2ccc(CCS(=O)(=O)O)cc2)CS[C@@H]2[C@H](NC(=O)[C@H](NC(=O)c3nc[nH]c3C(=O)O)c3ccccc3)C(=O)N12` [Example 5, 7-β-[D-(-)-α-(4-carboxyimidazole-5-carboxamido)phenylacetamido]-3-(4-α-sulphoethylpyridiniummethyl-3-cephem-4-carboxylic acid disodium salt trihydrate] and `O=C(O)Cc1ccc[n+](CC2=C(C(=O)[O-])N3C(=O)[C@@H](NC(=O)[C@H](NC(=O)c4nc[nH]c4C(=O)O)c4ccccc4)[C@H]3SC2)c1` [Example 6, disodium salt] are the same in MIC: 12.5 µg/mL for the first, 12.5 µg/mL for the second.
